Assay results: PubChem BioAssay AID1963964 (Molecular Pharmacology Branch, DTP, NCI, 2024)
pIC50: −log10 of the molar value.

Test system: 997726-040-R-J2-PDC tumor spheroids, viability
Assay: Anticancer human tumor 997726-040-R-J2-PDC patient-derived squamous cell lung carcinoma cell line growth inhibition [PI3K]
Conditions: spheroids with HUVEC and MSC; for pIC50: curve of first compound; for viability, T/C: stronger effect = lower value
Method in brief: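 Complex 3D spheroids (cancer cells + endothelial HUVEC + mesenchymal stem cells); drug pairs of targeted agent x inavolisib/alpelisib/duvelisib/copanlisib; half-log series from ~Cmax, max 10 microM if Cmax unknown; endpoint viability.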

[1] = second compound 0.00316 µM, first compound 0.0316 µM
[2] = second compound 0.00316 µM, first compound 0.1 µM
[3] = second compound 0.00316 µM, first compound 0.316 µM
[4] = second compound 0.00316 µM, first compound 1 µM
[5] = second compound 0.00316 µM, first compound 3.16 µM
[6] = second compound 0.00316 µM, first compound 10 µM
[7] = second compound 0.01 µM, first compound 0.0316 µM
[8] = second compound 0.01 µM, first compound 0.1 µM
[9] = second compound 0.01 µM, first compound 0.316 µM
[10] = second compound 0.01 µM, first compound 1 µM
[11] = second compound 0.01 µM, first compound 3.16 µM
[12] = second compound 0.01 µM, first compound 10 µM
[13] = second compound 0.0316 µM, first compound 0.0316 µM
[14] = second compound 0.0316 µM, first compound 0.1 µM
[15] = second compound 0.0316 µM, first compound 0.316 µM
[16] = second compound 0.0316 µM, first compound 1 µM
[17] = second compound 0.0316 µM, first compound 3.16 µM
[18] = second compound 0.0316 µM, first compound 10 µM
[19] = second compound 0.1 µM, first compound 0.0316 µM
[20] = second compound 0.1 µM, first compound 0.1 µM
[21] = second compound 0.1 µM, first compound 0.316 µM
[22] = second compound 0.1 µM, first compound 1 µM
[23] = second compound 0.1 µM, first compound 3.16 µM
[24] = second compound 0.1 µM, first compound 10 µM
[25] = second compound 0.316 µM, first compound 0.0316 µM
[26] = second compound 0.316 µM, first compound 0.1 µM
[27] = second compound 0.316 µM, first compound 0.316 µM
[28] = second compound 0.316 µM, first compound 1 µM
[29] = second compound 0.316 µM, first compound 3.16 µM
[30] = second compound 0.316 µM, first compound 10 µM
[31] = second compound 1 µM, first compound 0.0316 µM
[32] = second compound 1 µM, first compound 0.1 µM
[33] = second compound 1 µM, first compound 0.316 µM
[34] = second compound 1 µM, first compound 1 µM
[35] = second compound 1 µM, first compound 3.16 µM
[36] = second compound 1 µM, first compound 10 µM
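Note: spheroids exposed to compounds for seven days before readout.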

Compound: C#Cc1c(F)ccc2cc(O)cc(-c3ncc4c(N5CC6CCC(C5)N6)nc(OCC56CCCN5CC(F)C6)nc4c3F)c12 (stereo unspecified) + COc1c(OCCCN2CCOCC2)ccc2c3n(c(=NC(=O)c4cnc(N)nc4)nc12)CCN3
- pIC50 (second compound 0.00316 µM): < 5.00
- pIC50 (second compound 0.01 µM): 5.29
- pIC50 (second compound 0.0316 µM): > 7.50
- pIC50 (second compound 0.1 µM): > 7.50
- pIC50 (second compound 0.316 µM): > 7.50
- pIC50 (second compound 1 µM): > 7.50
- viability, T/C [1]: 73.6%
- viability, T/C [2]: 74.5%
- viability, T/C [3]: 69.3%
- viability, T/C [4]: 76%
- viability, T/C [5]: 72%
- viability, T/C [6]: 58.5%
- viability, T/C [7]: 63.7%
- viability, T/C [8]: 57.6%
- viability, T/C [9]: 55.5%
- viability, T/C [10]: 57.2%
- viability, T/C [11]: 51.3%
- viability, T/C [12]: 47.1%
- viability, T/C [13]: 36.1%
- viability, T/C [14]: 35%
- viability, T/C [15]: 30%
- viability, T/C [16]: 32.6%
- viability, T/C [17]: 28.7%
- viability, T/C [18]: 27.7%
- viability, T/C [19]: 23%
- viability, T/C [20]: 21.7%
- viability, T/C [21]: 20.9%
- viability, T/C [22]: 22.2%
- viability, T/C [23]: 20.1%
- viability, T/C [24]: 17.6%
- viability, T/C [25]: 4.68%
- viability, T/C [26]: 5.65%
- viability, T/C [27]: 4.53%
- viability, T/C [28]: 4.98%
- viability, T/C [29]: 4.96%
- viability, T/C [30]: 3.97%
- viability, T/C [31]: 1.7%
- viability, T/C [32]: 1.08%
- viability, T/C [33]: 1.16%
- viability, T/C [34]: 0.96%
- viability, T/C [35]: 0.92%
- viability, T/C [36]: 0.86%

Compound: C=CC(=O)N1CCN(c2nc(=O)n(-c3c(C)ccnc3C(C)C)c3nc(-c4c(O)cccc4F)c(F)cc23)C(C)C1 (stereo unspecified) + COc1c(OCCCN2CCOCC2)ccc2c3n(c(=NC(=O)c4cnc(N)nc4)nc12)CCN3
- pIC50 (second compound 0.00316 µM): < 5.00
- pIC50 (second compound 0.01 µM): < 5.00
- pIC50 (second compound 0.0316 µM): > 7.50
- pIC50 (second compound 0.1 µM): > 7.50
- pIC50 (second compound 0.316 µM): > 7.50
- pIC50 (second compound 1 µM): > 7.50
- viability, T/C [1]: 71.2%
- viability, T/C [2]: 72.5%
- viability, T/C [3]: 85.4%
- viability, T/C [4]: 77.6%
- viability, T/C [5]: 92.2%
- viability, T/C [6]: 96.4%
- viability, T/C [7]: 53%
- viability, T/C [8]: 57.5%
- viability, T/C [9]: 51.2%
- viability, T/C [10]: 62.9%
- viability, T/C [11]: 63.1%
- viability, T/C [12]: 57.1%
- viability, T/C [13]: 33.9%
- viability, T/C [14]: 36%
- viability, T/C [15]: 34.4%
- viability, T/C [16]: 40.5%
- viability, T/C [17]: 43.2%
- viability, T/C [18]: 34.8%
- viability, T/C [19]: 28%
- viability, T/C [20]: 24.4%
- viability, T/C [21]: 25.1%
- viability, T/C [22]: 23.3%
- viability, T/C [23]: 22.9%
- viability, T/C [24]: 21.8%
- viability, T/C [25]: 6.57%
- viability, T/C [26]: 6.07%
- viability, T/C [27]: 5.29%
- viability, T/C [28]: 5.93%
- viability, T/C [29]: 4.93%
- viability, T/C [30]: 4.59%
- viability, T/C [31]: 2.71%
- viability, T/C [32]: 1.42%
- viability, T/C [33]: 1.53%
- viability, T/C [34]: 1.33%
- viability, T/C [35]: 1.27%
- viability, T/C [36]: 1.57%

Compound: CC(Cn1ccc(-c2ccc(C#N)c(Cl)c2)n1)NC(=O)c1cc(C(C)O)[nH]n1 (stereo unspecified) + COc1c(OCCCN2CCOCC2)ccc2c3n(c(=NC(=O)c4cnc(N)nc4)nc12)CCN3
- pIC50 (second compound 0.00316 µM): < 5.00
- pIC50 (second compound 0.01 µM): < 5.00
- pIC50 (second compound 0.0316 µM): > 7.50
- pIC50 (second compound 0.1 µM): > 7.50
- pIC50 (second compound 0.316 µM): > 7.50
- pIC50 (second compound 1 µM): > 7.50
- viability, T/C [1]: 69.7%
- viability, T/C [2]: 67%
- viability, T/C [3]: 78.8%
- viability, T/C [4]: 78.8%
- viability, T/C [5]: 82.3%
- viability, T/C [6]: 74%
- viability, T/C [7]: 57.3%
- viability, T/C [8]: 60.4%
- viability, T/C [9]: 59.9%
- viability, T/C [10]: 56.1%
- viability, T/C [11]: 54.6%
- viability, T/C [12]: 54.8%
- viability, T/C [13]: 35.7%
- viability, T/C [14]: 36.3%
- viability, T/C [15]: 41%
- viability, T/C [16]: 33.6%
- viability, T/C [17]: 37.6%
- viability, T/C [18]: 37.2%
- viability, T/C [19]: 23%
- viability, T/C [20]: 21.4%
- viability, T/C [21]: 21.5%
- viability, T/C [22]: 24.5%
- viability, T/C [23]: 22.6%
- viability, T/C [24]: 22.9%
- viability, T/C [25]: 4.78%
- viability, T/C [26]: 4.57%
- viability, T/C [27]: 5.76%
- viability, T/C [28]: 6.82%
- viability, T/C [29]: 4.57%
- viability, T/C [30]: 5.74%
- viability, T/C [31]: 1.37%
- viability, T/C [32]: 1.18%
- viability, T/C [33]: 1.28%
- viability, T/C [34]: 1.44%
- viability, T/C [35]: 1.61%
- viability, T/C [36]: 1.51%
